pKd: −log10 of the molar value.
What was measured:
[1] = test system: COLO 205 (Human Colorectal Adenocarcinoma Cell Line) tumors; test: COLO 205 mouse tumor model; type: in vivo, mice
Protocol: Briefly, 2×10^6COLO 205 cells in 100 μl of serum-free medium were injected subcutaneously into the flank of 6-8 week old male NCr nude mice (Taconic, Hudson, N.Y.). After tumor volumes reached an average of about 150 mm^3, mice were randomized into groups for treatment with antibody or Fc protein. Mice in each treatment group were administered an anti-Ang-2 antibody or Fc protein at a concentration of 4 mg/kg via intraperitoneal injection twice per week for approximately two weeks. Tumor volumes were measured twice per week over the course of the experiment and tumor weights were measured upon excision of tumors at the conclusion of the experiment. Averages (mean+/−standard deviation) of tumor weight and growth were calculated for each treatment group. “Avg. Tumor Growth” represents the average growth from the time of treatment initiation (when tumors were approximately 150 mm^3). Percent decrease of tumor weight and growth are calculated from comparison to Fc protein measurements.
A similar experiment was carried out to assess the effect of H1H685P, in particular, on COLO 205 tumor growth. Briefly, 2×10^6 COLO 205 cells in 100 μl of serum-free medium were implanted subcutaneously into the right hind flank of 9-11 week-old male SCID CB17 mice. When the tumors reached ˜125 mm^3, mice were randomized into 5 groups (n=7-8 mice/group) and treated twice per week with Fc protein (15 mg/kg), H1H685P (5 or 25 mg/kg) or Control II (5 or 25 mg/kg) for a period of 19 days. Tumor volumes were measured twice per week over the course of the experiment and tumor weights were measured upon excision of tumors at the end of the experiment. Averages of tumor weight and growth from the beginning of treatment were calculated for each group. Percent decrease of tumor weight and growth are calculated from comparison to the Fc control group.
To determine the effect of combining an anti-Ang-2 antibody with a VEGF inhibitor on the growth of COLO 205 xenografts, 2×10^6 cells were implanted subcutaneously into the right hind flank of 6-8 week-old female SCID mice. When the tumors reached an average volume of ˜350 mm^3, mice were randomized into 4 groups (n=6 mice/group) and treated with: human Fc protein (7.5 mg/kg), H1H685P (5 mg/kg), VEGF Trap (see U.S. Pat. No. 7,087,411) (2.5 mg/kg) or the combination of H1H685P+VEGF Trap. Mice were given a total of 3 doses over 10 days of treatment. Tumor volumes were measured twice per week over the course of the experiment. Averages of tumor growth from the start of treatment (mean+/−standard deviation) were calculated for each treatment group. Percent decrease of tumor growth was calculated from comparison to the Fc control group.
To test the effect of H1H685P in combination with a chemotherapeutic agent on tumor growth, 2.5×10^6 COLO 205 tumor cells were implanted subcutaneously into the right hind flank of 8-9 week-old male SCID mice. When the tumors reached an average volume of ˜150 mm^3 (day 17 after implantation), mice were randomized into 4 groups (n=5 mice/group) and treated as follows: the first group was treated sc with 15 mg/kg hFc and intraperitoneally (ip) with 5-FU vehicle; the second group was treated sc with 15 mg/kg of H1H685P; the third group was treated ip with 75 mg/kg of 5-FU; the fourth group was treated with the combination of 15 mg/kg H1H685P sc plus 75 mg/kg 5-FU ip. Mice received a total of three treatments, administered every 3-4 days. Tumor volumes were measured twice per week over the course of the experiment. Average (mean+/−standard deviation) tumor growth from the beginning of treatment until day 38 was calculated for each group. Percent decrease of tumor growth was calculated from comparison to the control group.

hAng-2FD-mFc Y-475-H = target: T1, hAng-2FD-mFc Y-475-H (Homo sapiens, UniProt O15123, Y475H); test: Ang-2FD-mFc point mutant binding experiment (SPR), Y-475-H; conditions: Y-475-H mutant captured; antibody/peptibody at 100 nM; 25° C.
T1 construct: made in house
T1 sequence (O15123 with tags, fused parts or gaps Y475H): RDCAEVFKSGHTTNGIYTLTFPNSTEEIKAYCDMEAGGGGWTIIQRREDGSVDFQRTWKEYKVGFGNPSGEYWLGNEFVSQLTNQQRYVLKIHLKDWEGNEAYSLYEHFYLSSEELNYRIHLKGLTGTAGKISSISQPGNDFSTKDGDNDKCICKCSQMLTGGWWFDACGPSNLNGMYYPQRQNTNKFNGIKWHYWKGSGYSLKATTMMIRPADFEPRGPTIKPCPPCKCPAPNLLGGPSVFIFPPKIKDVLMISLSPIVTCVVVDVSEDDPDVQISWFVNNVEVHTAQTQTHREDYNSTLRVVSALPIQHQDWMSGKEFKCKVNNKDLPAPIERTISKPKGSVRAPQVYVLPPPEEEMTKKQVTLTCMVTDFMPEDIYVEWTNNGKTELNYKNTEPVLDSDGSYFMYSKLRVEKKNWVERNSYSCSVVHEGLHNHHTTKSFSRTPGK
Source text: To further characterize binding between hAng2 and anti-hAng2 mAbs of the invention, seven variant hAng2-FD-mFc proteins were generated, each containing a single point mutation. Amino acids selected for mutation were based on the difference in sequence between hAng-2 and hAng-1 in the region that interacts with hTie-2 (FIG. 1). In particular, amino acids within the fibrinogen-like domain (FD) of Ang-2 which are believed to interact with Tie-2 based on crystal structure analysis, but which differ from the corresponding amino acid in Ang-1, were individually mutated to the corresponding hAng-1 residue. The results of this example indicate the amino acid residues of hAng-2 with which the Ang-2 preferential binding antibodies interact.
In this experiment, each of the seven hAng-2FD-mFc mutant proteins were captured (˜147-283 RU) on an anti-mouse-Fc surface created through direct chemical coupling to a BIACORE™ chip. Then each Ang-2 antibody (or peptibody, as the case may be) at 100 nM was injected over the captured mFc-tagged hAng-2FD protein surface at a flowrate of 50 μl/min for 180 sec, and the dissociation of variant hAng2-FD-mFc and antibody was monitored in real time for 20 min at 25° C.

[2] = COLO 205, SCID CB17 mice, 5 mg/kg twice per week, 19 days
[3] = COLO 205, SCID CB17 mice, 25 mg/kg twice per week, 19 days
[4] = COLO 205, female SCID mice, H1H685P 5 mg/kg, VEGF Trap 2.5 mg/kg, 3 doses over 10 days
[5] = COLO 205, male SCID mice, H1H685P 15 mg/kg sc, 5-FU 75 mg/kg ip, three treatments, until day 38

Substance: H1H685P: human anti-Ang-2 antibody, HCVR/LCVR SEQ ID NOs 18/20; also referred to as mAb1 [Antibody H1H685P]
- % Decrease in Tumor Growth [1, 2]: 45%
- % Decrease in Tumor Weight [1, 2]: 43%
- Avg Tumor Growth [1, 2]: 370 ± 114 mm^3
- Avg Tumor Weight [1, 2]: 0.458 ± 0.125 g
- % Decrease in Tumor Growth [1, 3]: 56%
- % Decrease in Tumor Weight [1, 3]: 46%
- Avg Tumor Growth [1, 3]: 295 ± 160 mm^3
- Avg Tumor Weight [1, 3]: 0.430 ± 0.139 g
- % Decrease in Tumor Growth [1, 4]: 80%
- Avg Tumor Growth [1, 4]: 74 ± 77 mm^3
- % Decrease in Tumor Growth [1, 5]: 29%
- Avg Tumor Growth [1, 5]: 405 ± 80 mm^3
- Anti-tumor activities in the COLO 205 mouse model (in words) ([1]; mouse, in vivo): substantial anti-tumor activities
- pKd (hAng-2FD-mFc Y-475-H): 9.71
- RU (hAng-2FD-mFc Y-475-H): 181.53 RU

Source: patent US9926369B2, “Methods for treating hepatocellular cancer by administering an anti-Ang-2 antibody” (Regeneron Pharmaceuticals, Inc., priority 2009, dated 2018)
